{
  "source": "patent US20070054848A1",
  "about": "“Composition and method for nerve regeneration” (priority 2003, published 2007)",
  "key": {"[1]": {"test_system": "cerebellar granule neurons from P7 rats", "experiment": "Neurite outgrowth assay, cerebellar neurons", "format": "cell-based, rat", "settings": "P7 rat cerebellar granule neurons"}, "[2]": {"test_system": "cerebellar granule neurons", "experiment": "Fluorescence Ca2+ imaging (Oregon-green 488BAPTA-1 and Fura Red)", "format": "cell-based", "settings": "p7 rat cerebellar granule neurons"}, "[3]": {"test_system": "DRG neurons", "experiment": "Neurite outgrowth assay, DRG neurons", "format": "cell-based, mice"}, "[4]": {"test_system": "superior cervical ganglion neurons", "format": "cell-based", "settings": "100 ng/ml BDNF; data not shown"}, "[5]": {"biological_target": "T1, p75 (Homo sapiens, UniProt P08138)", "T1 construct": "host or cells: 293T cells (p75)", "T1 sequence (P08138 29-427)": "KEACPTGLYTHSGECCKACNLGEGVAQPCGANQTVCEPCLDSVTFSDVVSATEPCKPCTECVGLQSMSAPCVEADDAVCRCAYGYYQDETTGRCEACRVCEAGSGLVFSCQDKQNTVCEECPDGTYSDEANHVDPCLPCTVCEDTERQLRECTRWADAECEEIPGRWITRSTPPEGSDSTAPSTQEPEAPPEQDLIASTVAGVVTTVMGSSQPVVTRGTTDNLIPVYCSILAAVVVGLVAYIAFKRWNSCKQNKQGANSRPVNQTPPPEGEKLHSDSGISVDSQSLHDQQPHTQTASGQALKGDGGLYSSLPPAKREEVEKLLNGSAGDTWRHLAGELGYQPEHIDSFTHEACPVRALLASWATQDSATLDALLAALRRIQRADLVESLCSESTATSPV", "experiment": "Co-precipitation of p75 and Rho GDI with purified recombinant proteins", "format": "binding", "settings": "1 μM GST-Rho GDI and Pep5 at the indicated concentrations"}, "[6]": {"test_system": "hippocampal neurons", "format": "cell-based", "settings": "data not shown"}, "[7]": {"biological_target": "T2, p75 (Mus musculus, UniProt Q9Z0W1)", "T2 construct": "was incubated with lysates prepared from post-natal cerebellum that abundantly express p75; from tissue; host or cells: post-natal cerebellum", "T2 sequence (Q9Z0W1 32-427)": "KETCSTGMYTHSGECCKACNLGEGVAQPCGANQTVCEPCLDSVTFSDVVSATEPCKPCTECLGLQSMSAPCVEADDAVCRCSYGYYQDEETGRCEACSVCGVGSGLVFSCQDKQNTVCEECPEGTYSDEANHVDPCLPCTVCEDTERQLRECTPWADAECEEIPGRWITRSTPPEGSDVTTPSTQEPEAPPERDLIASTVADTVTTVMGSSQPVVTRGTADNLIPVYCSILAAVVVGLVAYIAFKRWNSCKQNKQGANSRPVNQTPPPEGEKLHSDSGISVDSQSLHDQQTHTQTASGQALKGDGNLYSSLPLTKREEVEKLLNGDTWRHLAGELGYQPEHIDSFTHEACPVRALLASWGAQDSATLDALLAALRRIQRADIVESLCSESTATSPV", "experiment": "Co-precipitation of p75 with recombinant GST-Pep5", "format": "binding", "settings": "lysates prepared from post-natal cerebellum", "text": "As all the myelin-derived inhibitors of axonal regeneration identified so far act on neurons through p75, intervening with p75 signaling after injury to the central nervous system may alleviate myelin-dependent inhibition of axonal regeneration. […] The specific peptide ligand to the p75 HD was previously obtained from a combinatorial library (Ilag, L. L. et al., Biochem Biophys Res Commun. 255, 104-109 (1999)). This ligand is a 15 amino acid residue peptide (Pep5; […] (SEQ ID NO: 2)) and the binding site was mapped by nuclear magnetic resonance spectroscopy onto a hydrophobic patch framed by helices 5 and 6. […] The present inventors first confirmed whether p75 associates with Pep5. Glutathione S-transferase-fusion protein containing Pep5 (GST-Pep5) was incubated with lysates prepared from post-natal cerebellum that abundantly express p75. […] Therefore, Pep5 has a potential to disrupt the signal mediated by p75 in vitro. As the peptide ligand must gain entry into the cell if it is to act directly on the p75 HD in vivo, the present inventors generated Pep5 fused with the amino-terminal 11 amino acid protein transduction domain (PTD domain) from the human immunodeficiency virus protein, TAT (TAT-Pep5) (Schwarze, S. R., Ho, A., Vocero-Akbani, A. & Dowdy, S. F., Science 285, 1569-1572 (1999)). […] Thus, Pep5 may be used as an inhibitor of Rho GDI association with p75."}, "[8]": {"test_system": "E12 chick dorsal root ganglia explants", "experiment": "Growth cone collapse assay", "format": "cell-based", "settings": "chick E12 DRG explants; myelin 0.1 to 10 ng/μl", "experimental": "Explants of E12 chick dorsal root ganglia were incubated for 24 hours on plastic slides precoated with 100 μg/ml poly-L-lysine, and were treated for 30 minutes with soluble CNS myelin extracts (Sigma) at the indicated concentrations (MAG-Fc (25 μg/ml) or the Nogo peptide (4 μM)). Explants were fixed in 4% (wt/vol) paraformaldehyde, and were stained with fluorescence-labeled phalloidin (Sigma)."}, "[9]": {"test_system": "DRG neurons from P1 rats", "experiment": "Neurite outgrowth assay, dissociated DRG neurons", "format": "cell-based, rat"}, "[10]": {"test_system": "RhoA", "experiment": "Affinity-precipitation of GTP-RhoA", "format": "cell-based", "settings": "P7 rat cerebellar neurons", "experimental": "Cells were lysed in 50 mM Tris, pH 7.5, 1% Triton X-100, 0.5% sodium deoxycholate, 0.1% SDS, 500 mM NaCl, 10 mM MgCl2, with leupeptin and aprotinin, each at 10 μg/ml (Tang S. et al., J. Cell Biol., 138, 1355-1366 (1997)). Cell lysates were clarified by centrifugation at 13,000 g at 4° C. for 10 min, and the supernatants were incubated with the 20 μg of GST-Rho binding domain of Rhotekin beads (Upstate Biotechnology) at 4° C. for 45 min. The beads were washed 4 times with washing buffer (50 mM Tris, pH 7.5 containing 1% Triton X-100, 150 mM NaCl, 10 mM MgCl2, 10 μg/ml leupeptin, and 10 μg/ml aprotinin). Bound Rho proteins were detected by Western blotting using a monoclonal antibody against RhoA (Santa Cruz Biotechnology).\nTo address this, we measured RhoA activity in the neurons. Using the RhoA-binding domain of the effector protein Rhotekin (Ren, X. D. et al., EMBO J., 18, 578-585 (1999)), the GTP-bound form of RhoA can be affinity-precipitated. […] The PKC inhibitor had no effect on the Rho activity induced by MAG-Fc or the Nogo peptide. Thus, promotion of neurite outgrowth of the cerebellar neurons by inhibition of PKC was not mediated by the block of RhoA activation, showing that PKC is not upstream of RhoA."}, "[11]": {"test_system": "nerve regeneration", "experiment": "Similar experiments with modified amino acid agents (Example 2-8)", "experimental": "Similar experiments were carried out using Pep5 in which alanine was added to the C terminus of the sequence (SEQ ID NO: 2), antibodies for the extracellular domain of p75, and p75 in which alanine was replaced with valine at amino acid 423 in positions 273-427 of SEQ ID NO: 4."}, "[12]": {"biological_target": "T3, interaction of p75 with Rho GDI (Mus musculus, UniProt Q9Z0W1)", "T3 construct": "endogenous in cells; host or cells: primary cerebellar neurons from P9 mice", "T3 sequence (Q9Z0W1 32-427)": "T2 sequence (Q9Z0W1 32-427)", "experiment": "Co-immunoprecipitation of endogenous p75 and Rho GDI in cerebellar neurons", "format": "cell-based, mice", "settings": "dissociated cerebellar neurons"}, "[13]": {"test_system": "spinal cord", "experiment": "Spinal cord injury in rats (dorsal half dissected), BBB score", "format": "in vivo, rat", "settings": "200 g male Wistar rats; continuous osmotic pump to the injured site"}, "[14]": {"test_system": "cerebellar neurons", "experiment": "Neurite outgrowth assay, post-natal cerebellar neurons", "format": "cell-based, mice", "settings": "post-natal cerebellar neurons"}, "[15]": {"test_system": "spinal cord", "experiment": "Similar spinal cord experiments in mice (Example 2-7)", "format": "in vivo"}, "[16]": {"test_system": "RhoA", "experiment": "Affinity-precipitation of GTP-RhoA in cerebellar neurons", "format": "cell-based, mice", "settings": "post-natal cerebellar neurons; TAT-Pep5 (1 μM)", "experimental": "293 cells were transfected with pcDNA3 vectors containing wild type RhoA whose NH2-terminus is tagged with HA (Yamashita, T. et al., Neuron. 24:585-593, 1999) and/or full-length human p75 by lipofection using Lipofectamine 2000 (Gibco BRL). Cerebellar neurons from P9 mice were isolated as described previously (Cai et. al, Neuron, 22:89-101, 1999). Cells were lysed in 50 mM Tris (pH 7.5), 1% Triton X-100, 0.5% sodium deoxycholate, 0.1% SDS, 500 mM NaCl, 10 mM MgCl2, with leupeptin and aprotinin, each at 10 μg/ml. Cell lysates were clarified by centrifugation at 13,000×g at 4° C. for 10 min, and the supernatants were incubated with the 20 μg of GST-Rho binding domain of Rhotekin beads (Upstate Biotech.) at 4° C. for 45 min. The beads were washed 4 times with washing buffer (50 mM Tris (pH 7.5) containing 1% Triton X-100, 150 mM NaCl, 10 mM MgCl2, 10 μg/ml each of leupeptin and aprotinin). Bound Rho proteins were detected by Western blotting using a monoclonal antibody against RhoA (Santa Cruz Biotechnology).\nAmino-terminally FLAG-tagged human p75 or the deletion mutants of p75 ICD were cloned into pcDNA3.1 expression plasmid, and were transfected with 293T cells. […] Bound Rho proteins were detected by Western blotting using a monoclonal antibody against RhoA (Santa Cruz Biotechnology)."}, "[17]": {"test_system": "spinal cord", "experiment": "Spinal cord injury in rats, p21 / TAT-bound p21, BBB score", "format": "in vivo, rat", "settings": "200 g male Wistar rats; osmotic pump for 2 weeks; observed from day 2 for 6 weeks"}, "[18]": {"biological_target": "catalytic domain of Rho-kinase (GST-CAT) (Bos taurus, UniProt Q28021)", "sequence (Q28021 6-553 limits assumed)": "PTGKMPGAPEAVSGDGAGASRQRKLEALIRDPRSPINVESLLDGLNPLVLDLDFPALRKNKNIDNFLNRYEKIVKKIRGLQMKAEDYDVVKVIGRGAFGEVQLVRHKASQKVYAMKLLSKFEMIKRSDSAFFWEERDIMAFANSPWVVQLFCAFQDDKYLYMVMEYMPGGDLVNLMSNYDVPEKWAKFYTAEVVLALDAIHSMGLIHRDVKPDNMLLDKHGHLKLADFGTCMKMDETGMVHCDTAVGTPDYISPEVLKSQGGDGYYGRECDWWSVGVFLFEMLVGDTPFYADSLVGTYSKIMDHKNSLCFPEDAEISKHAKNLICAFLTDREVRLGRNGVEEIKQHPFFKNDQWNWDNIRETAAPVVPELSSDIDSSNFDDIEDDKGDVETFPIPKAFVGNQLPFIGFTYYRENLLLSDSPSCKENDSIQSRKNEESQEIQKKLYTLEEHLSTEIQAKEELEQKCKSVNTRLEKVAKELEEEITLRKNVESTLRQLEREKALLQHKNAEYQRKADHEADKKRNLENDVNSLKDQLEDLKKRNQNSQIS", "experiment": "In vitro binding assay of p21 and Rho-kinase (GST-CAT)", "settings": "GST-CAT; aa 6-553"}},
  "note": "Entries after “also recorded” stand apart in the source; their conditions may differ. Where no end group is shown, it is not given here. The star is where a group is joined. TAT = PTD (protein transduction domain) peptide fused to the peptide; Myristoyl = CCCCCCCCCCCCCC(=O)*",
  "data": [
    {"molecule": "COc1ccc2c(c1)CC[C@@H]1[C@@H]2CC[C@]2(C)[C@@H](NCCCCCCN3C(=O)C=CC3=O)CC[C@@H]12", "note": "[U73122]", "values": [
      {"measurement": "modulation of neurite outgrowth inhibition by MAG-Fc or the Nogo peptide", "setting": "[1]", "result": "neither PTX nor U73122 modulated"},
      {"measurement": "effect on Ca2+ elevation induced by MAG", "setting": "[2]", "result": "blocked"}
    ]},
    {"molecule": "CFFRGGFFNHNPRYC [Pep5]", "values": [
      {"measurement": "neurite outgrowth of neurons which express the short isoform but not the full-length p75", "setting": "[3]", "result": "did not affect the neurite outgrowth"},
      {"measurement": "cell death of superior cervical ganglion neurons", "setting": "[4]", "result": "did not inhibit"},
      {"measurement": "association of p75 with Rho GDI", "setting": "[5]", "result": "inhibited the association of p75 with Rho GDI dose dependently; also recorded: inhibits the binding of p75 with Rho GDI dose dependently"},
      {"measurement": "NGF-induced promotion of the neurite outgrowth", "setting": "[6]", "result": "did not inhibit"}
    ]},
    {"molecule": "GST-Pep5: Glutathione S-transferase-fusion protein containing Pep5", "values": [
      {"measurement": "co-precipitation of p75", "setting": "[7]", "result": "revealed the presence of a protein corresponding to p75"}
    ]},
    {"molecule": "PKC inhibitor: cell permeable PKC inhibitor 20-28 (Calbiochem), specific membrane permeable PKC inhibitor peptide (Myristoyl-FARKGALRQ; not fully specified (C-terminus); UniProt P17252 20-28, looked up, fragment)", "values": [
      {"measurement": "effect on growth cone collapse mediated by myelin", "setting": "[8]", "result": "completely reversed"},
      {"measurement": "neurite outgrowth (substance alone)", "setting": "[1]; MAG-Fc 25 μg/ml, Nogo peptide 4 μM", "result": "no effect on the growth"},
      {"measurement": "modulation of MAG-Fc effect on neurite outgrowth", "setting": "[9]", "result": "no modulating effect"},
      {"measurement": "effect on Rho activity induced by MAG-Fc or the Nogo peptide", "setting": "[10]", "result": "no effect"}
    ]},
    {"molecule": "Pep5 in which alanine was added to the C terminus: Pep5 in which alanine was added to the C terminus of the sequence (SEQ ID NO: 2) (CFFRGGFFNHNPRYC)", "values": [
      {"measurement": "nerve regeneration", "setting": "[11]", "result": "nerve regeneration was similarly observed"}
    ]},
    {"molecule": "TAT-CFFRGGFFNHNPRYC ({TAT}-CFFRGGFFNHNPRYC; cysteine pairing not given here; also: TAT (PTD) sequence not fixed) [TAT-Pep5, Pep5 fused with the amino-terminal 11 amino acid protein transduction domain from HIV TAT]", "values": [
      {"measurement": "interaction of p75 with Rho GDI induced by MAG-Fc", "setting": "[12]", "result": "significantly inhibited; also recorded: diminished"},
      {"measurement": "nerve regeneration after spinal cord injury", "setting": "[13]", "result": "nerve regeneration was significantly observed"},
      {"measurement": "inhibitory effect of MAG (25 μg/ml) and the Nogo peptide (4 μM) on neurite outgrowth", "setting": "[14]", "result": "efficiently silenced the inhibitory effect"},
      {"measurement": "responsiveness of DRG neurons to MAG (25 μg/ml) and the Nogo peptide (4 μM), neurite outgrowth", "setting": "[3]; added exogenously at 100 nM", "result": "abolished their responsiveness"},
      {"measurement": "nerve regeneration", "setting": "[15]", "result": "nerve regeneration was similarly observed"},
      {"measurement": "activation of RhoA induced by MAG-Fc or the Nogo peptide", "setting": "[16]", "result": "inhibited the activation of RhoA; also recorded: completely abolishes these effects"}
    ]},
    {"molecule": "p21: Recombinant full-length p21 (1-164 in SEQ ID NO: 23), cyclin-dependent protein kinase inhibitor", "values": [
      {"measurement": "functional recovery after spinal cord injury (BBB score)", "setting": "[17]", "result": "an effect was not sufficiently observed"},
      {"measurement": "in vitro interaction with Rho-kinase", "setting": "[18]", "result": "bound to each other in vitro"}
    ]}
  ]
}
